From paper PMC7614683, “A small molecule PI3Kα activator for cardioprotection and neuroregeneration” (Nature, 2023) come the findings set out here.

As usually defined, the inhibition is the change of the read-out against control, counted positive when it falls.

What all share (experiment): SelectScreen Z-LYTE kinase activity assay (SI Table 6)
What all share (type): biochemical

For assay [1], the target named is protein kinases of the Z-LYTE panel (Homo sapiens, UniProt P49137). The method, boiled down:
(§1)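 A single compound concentration of 1 μM was profiled in the vendor's Adapta, Lantha and Z-LYTE kinase assays. In gel-based follow-ups with 200 μM compound, phosphorylation was resolved on Phos-tag SDS-PAGE and quantified by Coomassie. The ATM run used 1 mM ATP with GST-p53 for 30 min, and the mTORC1 run used 250 μM ATP with 4E-BP1 for 3 h.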

Assay [2] concerns the target protein kinases of the Z-LYTE panel (Homo sapiens, UniProt Q9H792). The method, boiled down:
as §1

The target in assay [3] is T1, protein kinases of the Z-LYTE panel (Homo sapiens, UniProt P51955).
T1 sequence (P51955 1-445): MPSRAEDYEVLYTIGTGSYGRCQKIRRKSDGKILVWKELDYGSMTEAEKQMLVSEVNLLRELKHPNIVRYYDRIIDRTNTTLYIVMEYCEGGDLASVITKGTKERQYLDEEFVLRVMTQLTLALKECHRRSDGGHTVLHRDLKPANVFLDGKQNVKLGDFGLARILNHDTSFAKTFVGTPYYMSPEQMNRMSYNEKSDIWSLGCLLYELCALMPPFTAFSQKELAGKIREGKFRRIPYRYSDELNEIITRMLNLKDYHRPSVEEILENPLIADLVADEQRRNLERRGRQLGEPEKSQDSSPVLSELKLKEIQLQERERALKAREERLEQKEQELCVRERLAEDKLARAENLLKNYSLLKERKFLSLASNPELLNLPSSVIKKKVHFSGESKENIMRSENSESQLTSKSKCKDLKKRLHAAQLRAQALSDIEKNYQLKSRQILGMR
In short, it runs like this:
as §1

The target of assay [4] is protein kinases of the Z-LYTE panel (Homo sapiens, UniProt Q02750). To be noted: MAP2K1 (MEK1), 1000 nM, [ATP] 100 μM. In short, it runs like this:
as §1

The target of assay [5] is protein kinases of the Z-LYTE panel (Homo sapiens, UniProt Q15418). The method, boiled down:
as §1

Assay [6] has as its target T2, protein kinases of the Z-LYTE panel (Homo sapiens, UniProt Q8IW41).
T2 sequence (Q8IW41 1-473): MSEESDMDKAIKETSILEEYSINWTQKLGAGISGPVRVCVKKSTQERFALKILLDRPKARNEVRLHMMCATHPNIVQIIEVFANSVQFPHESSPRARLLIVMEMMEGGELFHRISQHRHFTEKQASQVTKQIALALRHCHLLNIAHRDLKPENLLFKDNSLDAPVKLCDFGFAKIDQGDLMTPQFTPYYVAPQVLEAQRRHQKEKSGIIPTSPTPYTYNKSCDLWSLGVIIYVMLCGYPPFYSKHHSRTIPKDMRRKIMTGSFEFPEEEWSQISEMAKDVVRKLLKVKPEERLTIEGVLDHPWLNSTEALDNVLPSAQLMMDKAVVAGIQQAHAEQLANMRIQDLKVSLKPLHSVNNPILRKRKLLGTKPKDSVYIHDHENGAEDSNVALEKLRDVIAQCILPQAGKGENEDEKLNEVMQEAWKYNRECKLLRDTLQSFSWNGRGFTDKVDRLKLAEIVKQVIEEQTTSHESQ
The method, boiled down: as §1

Assay [7] concerns the target protein kinases of the Z-LYTE panel (Homo sapiens, UniProt Q16288). The method, boiled down:
as §1

Where two headings read alike, the source gives them in different places.

Sequence of protein kinases of the Z-LYTE panel (Homo sapiens, UniProt Q15418) (Q15418 whole entry): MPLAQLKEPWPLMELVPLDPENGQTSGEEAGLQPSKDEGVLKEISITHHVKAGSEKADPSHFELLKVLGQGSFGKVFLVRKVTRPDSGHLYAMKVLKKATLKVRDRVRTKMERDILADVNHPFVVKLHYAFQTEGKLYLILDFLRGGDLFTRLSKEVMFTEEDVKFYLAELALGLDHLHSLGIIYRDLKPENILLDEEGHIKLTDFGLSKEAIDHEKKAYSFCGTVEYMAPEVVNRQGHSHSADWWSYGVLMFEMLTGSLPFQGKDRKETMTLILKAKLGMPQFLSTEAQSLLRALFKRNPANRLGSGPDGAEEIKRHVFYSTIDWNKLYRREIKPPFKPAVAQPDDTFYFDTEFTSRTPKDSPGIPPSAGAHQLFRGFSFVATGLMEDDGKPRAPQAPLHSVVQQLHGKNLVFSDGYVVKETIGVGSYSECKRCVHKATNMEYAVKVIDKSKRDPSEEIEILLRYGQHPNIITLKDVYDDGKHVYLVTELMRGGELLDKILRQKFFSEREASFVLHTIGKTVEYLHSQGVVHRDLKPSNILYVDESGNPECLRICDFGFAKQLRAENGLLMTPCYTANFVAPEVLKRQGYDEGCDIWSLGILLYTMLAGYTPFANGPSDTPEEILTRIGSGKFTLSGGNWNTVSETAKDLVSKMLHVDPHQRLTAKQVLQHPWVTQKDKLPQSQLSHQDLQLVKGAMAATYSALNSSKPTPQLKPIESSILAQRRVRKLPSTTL
Sequence of protein kinases of the Z-LYTE panel (Homo sapiens, UniProt Q9H792) (Q9H792 whole entry): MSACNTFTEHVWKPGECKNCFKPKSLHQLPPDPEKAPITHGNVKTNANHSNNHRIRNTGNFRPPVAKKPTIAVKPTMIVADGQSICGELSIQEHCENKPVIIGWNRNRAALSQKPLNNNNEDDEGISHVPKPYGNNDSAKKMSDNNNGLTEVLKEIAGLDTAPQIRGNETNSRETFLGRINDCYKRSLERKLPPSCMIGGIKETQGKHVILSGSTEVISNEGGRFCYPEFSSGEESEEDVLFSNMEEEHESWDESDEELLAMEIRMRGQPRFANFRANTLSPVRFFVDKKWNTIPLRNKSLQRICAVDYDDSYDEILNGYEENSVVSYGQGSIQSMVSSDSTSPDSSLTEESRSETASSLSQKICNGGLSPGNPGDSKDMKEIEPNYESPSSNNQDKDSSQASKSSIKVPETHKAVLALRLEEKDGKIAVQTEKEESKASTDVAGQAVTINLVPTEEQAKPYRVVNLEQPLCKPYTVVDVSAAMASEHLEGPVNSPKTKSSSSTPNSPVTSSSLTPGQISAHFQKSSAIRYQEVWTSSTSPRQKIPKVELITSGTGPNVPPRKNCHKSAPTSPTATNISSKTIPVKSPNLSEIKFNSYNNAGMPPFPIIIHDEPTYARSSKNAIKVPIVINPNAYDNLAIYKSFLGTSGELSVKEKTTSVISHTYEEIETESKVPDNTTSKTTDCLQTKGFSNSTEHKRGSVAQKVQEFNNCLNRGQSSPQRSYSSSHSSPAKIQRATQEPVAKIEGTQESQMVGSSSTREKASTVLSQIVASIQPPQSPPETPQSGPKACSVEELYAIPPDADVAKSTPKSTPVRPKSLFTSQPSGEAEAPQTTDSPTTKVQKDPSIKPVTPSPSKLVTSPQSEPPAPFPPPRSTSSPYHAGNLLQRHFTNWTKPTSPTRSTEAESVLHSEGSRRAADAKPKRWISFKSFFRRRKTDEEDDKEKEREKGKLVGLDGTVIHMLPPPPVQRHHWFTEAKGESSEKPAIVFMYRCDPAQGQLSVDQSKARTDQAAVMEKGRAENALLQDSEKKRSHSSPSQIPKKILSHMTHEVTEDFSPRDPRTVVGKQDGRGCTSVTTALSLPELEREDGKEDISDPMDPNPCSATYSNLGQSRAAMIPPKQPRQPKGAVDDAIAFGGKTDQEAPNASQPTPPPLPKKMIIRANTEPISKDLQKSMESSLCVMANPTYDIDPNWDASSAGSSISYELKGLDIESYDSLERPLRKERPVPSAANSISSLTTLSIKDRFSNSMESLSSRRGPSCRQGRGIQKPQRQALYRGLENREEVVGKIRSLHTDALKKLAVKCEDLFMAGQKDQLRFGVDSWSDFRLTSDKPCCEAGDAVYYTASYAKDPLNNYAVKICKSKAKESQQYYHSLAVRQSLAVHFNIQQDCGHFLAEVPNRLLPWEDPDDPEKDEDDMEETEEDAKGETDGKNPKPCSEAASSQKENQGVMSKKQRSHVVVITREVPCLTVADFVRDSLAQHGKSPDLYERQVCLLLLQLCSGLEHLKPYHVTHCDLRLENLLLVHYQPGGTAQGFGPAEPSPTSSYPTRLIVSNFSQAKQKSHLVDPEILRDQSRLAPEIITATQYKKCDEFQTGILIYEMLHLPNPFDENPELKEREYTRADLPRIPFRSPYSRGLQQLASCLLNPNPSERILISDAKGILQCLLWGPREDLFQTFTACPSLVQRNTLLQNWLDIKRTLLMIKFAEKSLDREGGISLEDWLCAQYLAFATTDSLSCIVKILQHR
Sequence of protein kinases of the Z-LYTE panel (Homo sapiens, UniProt Q02750) (Q02750 whole entry): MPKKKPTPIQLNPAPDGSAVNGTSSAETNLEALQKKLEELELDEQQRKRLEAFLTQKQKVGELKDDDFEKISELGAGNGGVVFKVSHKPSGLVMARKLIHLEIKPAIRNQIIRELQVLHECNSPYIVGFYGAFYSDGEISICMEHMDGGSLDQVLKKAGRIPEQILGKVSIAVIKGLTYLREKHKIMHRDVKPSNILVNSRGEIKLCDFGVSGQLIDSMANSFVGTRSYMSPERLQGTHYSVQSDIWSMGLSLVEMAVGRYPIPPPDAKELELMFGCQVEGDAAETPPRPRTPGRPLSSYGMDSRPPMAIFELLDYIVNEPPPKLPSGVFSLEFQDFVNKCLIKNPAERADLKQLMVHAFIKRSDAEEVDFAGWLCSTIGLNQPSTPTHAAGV
Sequence of protein kinases of the Z-LYTE panel (Homo sapiens, UniProt Q16288) (Q16288 32-839): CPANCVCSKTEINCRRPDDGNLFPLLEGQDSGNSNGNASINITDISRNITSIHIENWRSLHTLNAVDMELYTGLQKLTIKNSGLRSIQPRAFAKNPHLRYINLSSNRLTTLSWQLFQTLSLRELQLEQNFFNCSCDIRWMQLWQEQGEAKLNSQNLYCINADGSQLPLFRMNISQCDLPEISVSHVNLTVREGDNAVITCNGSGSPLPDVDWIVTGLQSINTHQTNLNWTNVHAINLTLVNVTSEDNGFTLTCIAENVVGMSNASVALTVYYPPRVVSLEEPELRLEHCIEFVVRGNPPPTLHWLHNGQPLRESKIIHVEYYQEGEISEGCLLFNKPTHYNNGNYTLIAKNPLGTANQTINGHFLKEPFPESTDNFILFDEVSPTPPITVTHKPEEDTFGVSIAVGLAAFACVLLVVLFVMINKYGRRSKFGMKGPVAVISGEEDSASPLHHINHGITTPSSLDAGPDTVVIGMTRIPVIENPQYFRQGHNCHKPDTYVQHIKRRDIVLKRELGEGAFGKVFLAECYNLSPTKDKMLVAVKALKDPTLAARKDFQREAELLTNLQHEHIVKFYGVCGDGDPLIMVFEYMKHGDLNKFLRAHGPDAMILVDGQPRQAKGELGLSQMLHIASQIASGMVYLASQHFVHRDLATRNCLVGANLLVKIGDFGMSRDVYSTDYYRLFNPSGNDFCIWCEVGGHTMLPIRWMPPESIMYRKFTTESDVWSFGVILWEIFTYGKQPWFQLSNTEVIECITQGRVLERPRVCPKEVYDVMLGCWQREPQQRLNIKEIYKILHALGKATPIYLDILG
Sequence of protein kinases of the Z-LYTE panel (Homo sapiens, UniProt P49137) (P49137 whole entry): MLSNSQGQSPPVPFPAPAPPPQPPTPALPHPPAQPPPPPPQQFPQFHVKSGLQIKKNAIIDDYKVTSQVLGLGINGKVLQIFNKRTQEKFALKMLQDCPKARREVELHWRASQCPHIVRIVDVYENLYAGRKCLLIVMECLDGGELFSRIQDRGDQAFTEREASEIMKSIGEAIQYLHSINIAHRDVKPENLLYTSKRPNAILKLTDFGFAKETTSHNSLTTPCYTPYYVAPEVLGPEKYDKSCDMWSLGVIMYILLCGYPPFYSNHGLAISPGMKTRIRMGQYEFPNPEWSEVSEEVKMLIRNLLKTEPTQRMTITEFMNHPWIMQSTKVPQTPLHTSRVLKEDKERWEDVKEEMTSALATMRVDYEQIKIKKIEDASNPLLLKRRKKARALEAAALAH

For `CCN1CCN(c2ccc(Nc3cc(Nc4cccc5c4N(C(C)=O)CC5)ccn3)cc2)CC1` [Compound 1938], the inhibition at 1 µM was -0.0637% in assay [1] (read-out: % Inhibition Point 1); -0.692% in assay [1] (read-out: % Inhibition Point 2); -0.378% in assay [1] (read-out: % Inhibition mean); 25% in assay [2] (read-out: % Inhibition Point 1); 18% in assay [2] (read-out: % Inhibition Point 2); 21% in assay [2] (read-out: % Inhibition mean). Moreover, the inhibition at 1 µM in assay [3] (read-out: % Inhibition Point 1) is -6%; in assay [3] (read-out: % Inhibition Point 2), -5%; in assay [3] (read-out: % Inhibition mean), -5.54%; in assay [4] (read-out: % Inhibition Point 1), 4%; in assay [4] (read-out: % Inhibition Point 2), 3.36%; in assay [4] (read-out: % Inhibition mean), 3.61%. Further, the inhibition at 1 µM in assay [5] (read-out: % Inhibition Point 1) was 6%; in assay [5] (read-out: % Inhibition Point 2) it was 5.47%; in assay [5] (read-out: % Inhibition mean) it was 6%; in assay [6] (read-out: % Inhibition Point 1), 2.18%; in assay [6] (read-out: % Inhibition Point 2), 2.77%; in assay [6] (read-out: % Inhibition mean), 2.48%. Further, the inhibition at 1 µM in assay [7] (read-out: % Inhibition Point 1) is 12%; in assay [7] (read-out: % Inhibition Point 2), 14%; in assay [7] (read-out: % Inhibition mean), 13%.
